1 compound from patent publication US12578339B2, “Hexokinase 1 isoform B for use as a prognosis marker and specific target against cancer” (ISTANBUL MEDIPOL UNIVERSITESI, priority 2019, dated 2026) can be followed below.

Common to all, as to assay type: cell-based, Human
In experiment [1] the test system is A549 HK1b−/− cells. Put plainly: Seahorse XF glycolysis stress test (ECAR). The note with it: treated A549 HK1b−/− cells. The procedure:
(§1) For Seahorse XFe96 assays, cells were seeded at pre-optimized final concentration 1.5×10^4 cells/well onto Seahorse XF-96-well plates and Glycolytic rate, Glycolysis stress and Mito Stress Tests were performed following the manufacturer's specifications (Seahorse Bioscience, North Billerica, MA). Each datum was determined minimally in triplicate. OCR and ECAR were reported as absolute rates (pmoles/min for OCR and mpH/min for ECAR) or normalized against cell counts, or expressed as a percentage of the baseline oxygen consumption.

The subject of experiment [2] is A549 WT cells. The experiment can be described thus: Immunoblot analysis of apoptotic, autophagic and survival signaling. On the procedure:
(§2) Cells were harvested and washed in PBS solution, collected, and then subjected to lysis in RIPA buffer containing proteinase inhibitor cocktail and phosphatase inhibitor cocktail (Roche). The lysates were subjected to centrifugation at 10,000 g at 4 C for 20 minutes and the supernatants removed. The total protein ([…]) was fractioned by 10% SDS-PAGE and electrophoretically transferred to Immobilon-FL PVDF membranes. The membrane was blocked with blocking buffer (Li-Cor) at room temperature for 1 hour, and then incubated with appropriate primary antibody at 4 C overnight. After washing with PBS containing 0.05% […] (PBST), the membrane was incubated with 1:2500 dilutions of appropriate secondary antibody for 2 hours at room temperature. The membrane was washed with PBST again, and Pierce ECL Western Blotting Substrate (Thermo Scientific) was used for development of immunoreactive bands. For immunoblotting of tissue samples, proteins were extracted from tumor and adjacent non-tumor lung samples collected from human NSCLC patients, snap frozen in liquid nitrogen, and stored at −80° C. Then protein lysis buffer (described above) was added to samples. Samples were vortexed, homogenized and subjected to three freeze/thaw cycles in dry ice, centrifuged and supernatant collected, and stored at −80° C. for subsequent immunoblotting.
For orientation: A western blot detects proteins with antibodies after separation by electrophoresis.

Experiment [3] relates to A549 HK1b−/− cells. The description is as above. On the procedure:
as §2

Experiment [4] deals with A549 WT cells. Put plainly: Seahorse Mito Stress Test (OCR). The note with it: treated A549 WT cells, p=0.02. The procedure: as §1
In experiment [5] the test system is A549 HK1b−/− cells. The experiment can be described thus: Seahorse Mito Stress Test (OCR). The note with it: between treated A549 WT and A549 HK1b−/− cells. On the procedure:
as §1

For experiment [6], the system named is A549 WT cells. The experiment can be described thus: Cell viability assay (CellTiter-Blue). The note with it: A549 WT control group, 48 h treatment. On the procedure:
(§3) Twenty-four hours following seeding (15,000 cells/well) in a 96-well plate, A549 and A549 HK1b^−/− cells (70%-80% confluent) were treated with vehicle (PBS/Saline), or cisplatin with concentrations range from 0-100 μM/ml and the cells incubated for a further 48 h. The cell viability was determined using the CellTiter-Blue assay kit (Promega) according to the manufacturer's instructions and absorbance measured at 595 nm with a microplate reader (Model 3550, Bio-Rad Laboratories, CA, USA). IC50 was defined as the concentration causing a 50% reduction in absorbance relative to the negative control. IC50 was determined by non-linear regression analysis using Graphpad Prism v8 (Graphpad Software, CA, USA).
For orientation: Resazurin is reduced to fluorescent resorufin, in cell work by metabolically active cells.

The test system of experiment [7] is A549 HK1b−/− cells. The experiment can be described thus: Cell viability assay (CellTiter-Blue). The note with it: 48 h treatment. On the procedure:
as §3

In experiment [8] the test system is A549 HK1b−/− cells. Put plainly: Flow cytometric quantification of cell death by propidium iodide staining. The note with it: IC50 concentration (47 μM), 48 hrs. A general note: In flow cytometry, cells or beads pass a laser one at a time.
Experiment [9] relates to A549 HK1b−/− cells. The experiment can be described thus: Flow cytometric analysis of mTOR activation. The note with it: flow cytometry, HK1b deletion plus treatment, p=0.001.

“Also recorded” adds a separate entry of the source.

In general, IC50 refers to the concentration that gives 50% inhibition. A higher IC50 goes with weaker potency in that assay. With `N.N.[Cl][Pt][Cl]` [cisplatin, Cisplatin], in the experiment on A549 HK1b−/− cells [1], the “basal glycolysis and glycolytic capacity (ECAR)” value was “further reduction of basal glycolysis and glycolytic capacity even though not significant; also recorded: further reduced ablait not significant”; the glycolytic reserve entry is “total absence”. Moreover, in the experiment with A549 WT cells [2] (immunoblot, A549 WT (and HK1b−/−) cells), the “cleavage of PARP and caspase 3” value was “induces cleavage of PARP and caspase 3”. Also, in the experiment on A549 WT cells [2] (treated A549 WT cells), the AMPK phosphorylation result is given as “diminished” and the HK1 expression result is “significantly upregulated”. In addition, the “induction of cleavage of PARP and caspase 3” value in the experiment with A549 HK1b−/− cells [3] (A549 HK1b−/− cells compared with A549 WT) was “significantly higher”. Besides, in the experiment with A549 HK1b−/− cells [3] (HK1b deletion plus treatment), the “autophagy induction (LC3II)” value is given as “induces greater autophagy” and the “phosphorylation of STAT3 transcription factor” value was “inhibit significantly”. Further, the “AKT activation and its downstream target GSK3β” value in the experiment with A549 HK1b−/− cells [3] (HK1b silencing in combination with treatment) was “totally inhibited”. Besides, the “beclin-1 and ATG13 expression levels” value in the experiment with A549 HK1b−/− cells [3] (both A549 WT and A549 HK1b−/− cells) was “downregulated”. Also, the “phosphorylation of mTOR” value with A549 HK1b−/− cells [3] (immunoblot, HK1b deletion plus treatment) was “inhibits significantly; also recorded: inhibits phosphorylation”. Further, in the experiment on A549 HK1b−/− cells [3] (treated A549 HK1b−/− cells), the AMPK phosphorylation result is listed as “totally inhibited”, the Bcl-2 expression result is “down-regulation of Bcl-2 expression was significant” and the HK2 expression entry is on record as “reduced”. The spare respiratory capacity result in the experiment with A549 WT cells [4] is “diminished”. The basal respiration rate result in the experiment on A549 HK1b−/− cells [5] is given as “no significant change”. In addition, it took 75 µM to reach half-maximal inhibition in the experiment on A549 WT cells [6] (IC50). The same compound had an IC50 in the experiment on A549 HK1b−/− cells [7] of 47 µM. The “cell death measured by propidium iodide (PI) staining” value in the experiment with A549 HK1b−/− cells [8] is “significantly enhance cell death”. Further, the mTOR phosphorylation entry in the experiment on A549 HK1b−/− cells [9] is “significantly inhibits”.
